Laboratory results published in patent publication US11660342B2, “Method for increasing permeability of blood-brain barrier” (POSTECH Research and Business Development Foundation, priority 2020, dated 2023).

Key:
[1] = Ultrasound-responsive NO release, real-time NO analysis; format: physicochemical; settings: FIG. 5
Method: Subsequently, ultrasound-responsive NO release of the nanogenerator was monitored under physiological conditions (DPBS, pH 7.4, 37° C.). When ultrasound was absent, only a small overall amount (1.53 nmol/mg) of NO was released.

[2] = Behaviour in water (aggregation, solubility); format: physicochemical

## CCC(C)N(N=O)c1ccc(N(N=O)C(C)CC)cc1 (centres unmarked) [BNN6, N,N′-di-sec-butyl-N,N′-dinitroso-1,4-phenylenediamine]
[1]
  ultrasound-responsive nitric oxide release behavior: complete NO-releasability
[2]
  water solubility: water-insoluble
